Test systems include HOP-92; CAKI-1; TK-10; MDA-N; HL-60; SF-539; OVCAR-4; U-251; HOP-62; NCI-H226; SF-295; CCRF-CEM; SN12C; 786-0; NCI-H23; NCI-H522; OVCAR-8; MCF7; A498.
Experiment in all cases: growth of human tumour cells (NCI), 48 h

Structures are written as SMILES.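 Exposure lasted 48 hours, with cells grown in 96-well plates and compounds tested at five concentrations. GI50 marks 50% less growth.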 Calls of active or inactive are those of the source. Rule as the data show it: active = GI50 up to about 1.1 µM and inactive = higher.

As for `CN/C(=N\N=C1/C(=O)Nc2ccccc21)SCC(=O)c1ccc(Br)cc1`, the GI50 with HOP-92 was 20.7 µM (inactive); in the test with CAKI-1 it was 28.8 µM (inactive); with TK-10, 15 µM (inactive); in the test on MDA-N, 21.3 µM (inactive); with HL-60 it was 3.48 µM (inactive); with SF-539 it was 6.38 µM (inactive). The GI50 is 21.5 µM (inactive) in the test with OVCAR-4; 5.21 µM (inactive) in the test on U-251; 5.19 µM (inactive) in the test with HOP-62; 25.4 µM (inactive) with NCI-H226; 18.7 µM (inactive) in the test with SF-295; 5.46 µM (inactive) in the test on CCRF-CEM. For the same molecule, the GI50 in the test on SN12C was 12.5 µM (inactive); with 786-0, 5.61 µM (inactive); in the test on NCI-H23, 15.6 µM (inactive); with NCI-H522, 15.5 µM (inactive); in the test with OVCAR-8 it was 8.53 µM (inactive); with MCF7 it was 3.48 µM (inactive). Further, the GI50 in the test on A498 is 17.4 µM (inactive).

In the case of `COc1cc2oc(=O)cc(C)c2cc1O`, the GI50 is 46.3 µM (inactive) with HOP-92; > 100 µM (inactive) in the test on CAKI-1; > 100 µM (inactive) in the test on TK-10; > 100 µM (inactive) in the test with MDA-N; > 100 µM (inactive) in the test with HL-60; > 100 µM (inactive) with SF-539. Further, the GI50 in the test on OVCAR-4, in the test with U-251, in the test on HOP-62, with NCI-H226, in the test on SF-295 and in the test on CCRF-CEM was > 100 µM (inactive) in each case. In addition, the GI50 in the test with SN12C, in the test with 786-0, with NCI-H23, in the test on NCI-H522, with OVCAR-8 and with MCF7 was > 100 µM (inactive) throughout. For the same molecule, the GI50 with A498 is > 100 µM (inactive).

Consider `CCOC(=O)C(Cc1ccc(O)cc1)Nc1nc(=O)c2c(=O)oc(Cl)cc2o1` (stereo not drawn), for which the GI50 is 7.31 µM (inactive) with HOP-92; 4.73 µM (inactive) with CAKI-1; 6.58 µM (inactive) with TK-10; 2.85 µM (inactive) with MDA-N; 2.84 µM (inactive) in the test with HL-60; 5.79 µM (inactive) in the test with SF-539. The GI50 in the test with OVCAR-4 was 12.6 µM (inactive); with U-251, 7.19 µM (inactive); with HOP-62, 12.5 µM (inactive); in the test on NCI-H226, 19.7 µM (inactive); with SF-295 it was 16 µM (inactive); in the test on CCRF-CEM, 2.7 µM (inactive). Also, the GI50 in the test on SN12C was 6.28 µM (inactive); in the test with 786-0 it was 9.12 µM (inactive); in the test on NCI-H23, 10.9 µM (inactive); in the test with NCI-H522, 4.13 µM (inactive); in the test with OVCAR-8 it was 3.39 µM (inactive); in the test with MCF7, 4.16 µM (inactive). Further, the GI50 in the test on A498 was 18.2 µM (inactive).

On to `COc1cc(CNC(=O)CCCCCCCCCCSSCCCCCCCCCCC(=O)NCc2ccc(O)c(OC)c2)ccc1O`, for which the GI50 in the test with HOP-92, in the test with CAKI-1, in the test with TK-10, in the test on MDA-N, in the test on HL-60 and in the test on SF-539 was > 10 µM (inactive) in each case. Further, the GI50 in the test with OVCAR-4, in the test on U-251, in the test with HOP-62, in the test with NCI-H226, with SF-295 and with CCRF-CEM was > 10 µM (inactive) each time. Besides, the GI50 with SN12C was > 10 µM (inactive); in the test with 786-0 it was > 10 µM (inactive); with NCI-H23 it was > 10 µM (inactive); in the test with NCI-H522, 0.918 µM (active); with OVCAR-8, > 10 µM (inactive); in the test on MCF7, > 10 µM (inactive). Also, the GI50 with A498 is > 10 µM (inactive).

For the molecule `CC1=C2C(=O)c3ccccc3C(=O)[C@H]2[C@H]2CCO[C@H]2O1`, the GI50 with HOP-92 is 20 µM (inactive); in the test with CAKI-1, 22.2 µM (inactive); with TK-10 it was 28.5 µM (inactive); with MDA-N, 19.2 µM (inactive); with HL-60 it was 27.7 µM (inactive); in the test with SF-539, 22.1 µM (inactive). The GI50 with OVCAR-4 was 19.5 µM (inactive); in the test on U-251, 24.2 µM (inactive); with HOP-62, 21.3 µM (inactive); in the test on NCI-H226 it was 71 µM (inactive); in the test on SF-295, 23 µM (inactive); in the test with CCRF-CEM, 25.4 µM (inactive). In addition, the GI50 in the test on SN12C is 20.9 µM (inactive); with 786-0, 18.5 µM (inactive); in the test on NCI-H23 it was 20.1 µM (inactive); in the test with NCI-H522, 16.3 µM (inactive); in the test on OVCAR-8 it was 20.4 µM (inactive); in the test on MCF7, 0.3 µM (active). Besides, in the test with A498, the GI50 is > 100 µM (inactive).

In the case of `C/C=C/[C@@H]1[C@H]2C(=O)[C@]3(Cl)[C@@H](/C=C/C)[C@@H]3C(=O)[C@@]12Cl`, the GI50 is 94 µM (inactive) in the test with HOP-92; > 100 µM (inactive) in the test on CAKI-1; > 100 µM (inactive) in the test with TK-10; > 100 µM (inactive) in the test with MDA-N; > 100 µM (inactive) in the test with HL-60; > 100 µM (inactive) in the test with SF-539. For the same molecule, the GI50 with OVCAR-4 was > 100 µM (inactive); with U-251, 85.3 µM (inactive); in the test on HOP-62, 33.7 µM (inactive); with NCI-H226, > 100 µM (inactive); with SF-295, > 100 µM (inactive); with CCRF-CEM, 52 µM (inactive). The GI50 was > 100 µM (inactive) in the test with SN12C; 46.8 µM (inactive) in the test on 786-0; > 100 µM (inactive) in the test on NCI-H23; > 100 µM (inactive) in the test on NCI-H522; > 100 µM (inactive) in the test on OVCAR-8; > 100 µM (inactive) in the test on MCF7. Further, in the test with A498, the GI50 was > 100 µM (inactive).

As to `CNC1Cc2c[nH]c3cccc(c23)C12C=C(C)C(=O)O2` (stereo not drawn), the GI50 in the test with HOP-92, in the test on CAKI-1, in the test with TK-10, in the test on MDA-N, in the test on HL-60 and in the test with SF-539 was > 100 µM (inactive) each time. Further, the GI50 in the test with OVCAR-4, in the test on U-251, with HOP-62, in the test on NCI-H226, in the test on SF-295 and in the test with CCRF-CEM was > 100 µM (inactive) each time. Besides, the GI50 in the test on SN12C, with 786-0, with NCI-H23, in the test with NCI-H522, in the test with OVCAR-8 and in the test with MCF7 was > 100 µM (inactive) throughout. The GI50 in the test on A498 is > 100 µM (inactive).
